We go through 57 molecules from PubChem BioAssay AID504528 (Sanford-Burnham Center for Chemical Genomics, 2011).

Calls of active or inactive are those of the source.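 Rule for the calls: active = mean IC50 of 20 µM or lower; inactive = the rest.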

The assay relates to HEK-293T NF-kB-Luc cytotoxicity, resazurin fluorescence, 14 h. Kind of assay: cytotoxicity in HEK-293T NF-kB reporter cells, SAR follow-up, cytotoxicity control for B-cell antigen receptor NF-kB inhibitors (AID 504528).
Regarding `CCCCc1ccc(-c2noc(CCC(=O)NC3CC3)n2)cc1`, the IC50 was > 79 µM (inactive). For the molecule `CCc1ccc(-c2nc(CSCC(=O)NC3CC3)c(-c3ccccc3)o2)cc1`, the IC50 was > 79 µM (inactive).

As to `CCOc1ccc(-c2nc(CSCC(=O)N(C)C)c(C)o2)cc1`, the IC50 was > 79 µM (inactive). The same measure for `CCCOc1ccc(-c2nc(CSCC(=O)NCc3ccco3)c(C)o2)cc1`: 59.8 µM (inactive); for `CCOc1ccccc1-c1nc(CSCC(=O)O)c(C)o1`: > 79 µM (inactive); for `CCCCOc1ccc(-c2nc(CSCC(=O)NCc3ccco3)c(C)o2)cc1`: > 79 µM (inactive). In the case of `CCC(C)NC(=O)CCc1nc(-c2ccc(C(C)(C)C)cc2)no1` (configuration not stated) it was > 79 µM (inactive); in that of `CCc1ccc(-c2noc(CCC(=O)NC3CC3)n2)cc1`, > 79 µM (inactive); in that of `CCNC(=O)CCc1nc(-c2ccc(C(C)C)cc2)no1`, > 79 µM (inactive). The same measure for `CCc1ccc(-c2noc(CCC(=O)NC(C)(C)C)n2)cc1`: > 79 µM (inactive). On to `COc1cccc(-c2cc(=O)c3cc(NC(=O)c4ccccc4)ccc3[nH]2)c1`, for which the IC50 was 60.4 µM (inactive).

As to `CCNC(=O)CCc1nc(-c2cccc(OC)c2)no1`, the IC50 was > 79 µM (inactive). In the case of `CCNC(=O)CCc1nc(-c2c(Cl)cccc2Cl)no1` it was > 79 µM (inactive); in that of `CCC(C)NC(=O)CCc1nc(-c2ccccc2)no1` (configuration not stated), > 79 µM (inactive). The same measure for `CCCCc1ccc(-c2noc(CCC(=O)NC(C)CC)n2)cc1` (configuration not stated): > 79 µM (inactive). As to `CCC(C)NC(=O)CCc1nc(-c2ccc(C(C)C)cc2)no1` (configuration not stated), the IC50 was > 79 µM (inactive).

Take `CCOc1ccc(-c2nc(CSCC(=O)NC3CCC3)c(C)o2)cc1`: the IC50 was > 79 µM (inactive). In the case of `CCCCOc1ccc(-c2nc(CSCC(=O)O)c(C)o2)cc1` it was > 79 µM (inactive); in that of `Cc1ccc(-c2nc(CSCC(=O)NCc3ccco3)c(C)o2)cc1`, > 79 µM (inactive); in that of `O=C(CCc1nc(-c2ccccc2)no1)NC1CC1`, > 79 µM (inactive).

As for `CC(C)Nc1ccc(C(CC(=O)O)NC(=O)c2ccccc2)cc1[N+](=O)[O-]` (configuration not stated), the IC50 was > 79 µM (inactive). In the case of `CCCCc1ccc(-c2noc(CCC(=O)NCC)n2)cc1` it was > 79 µM (inactive); in that of `CCOc1ccc(-c2nc(CSCC(=O)NC)c(C)o2)cc1`, > 79 µM (inactive); in that of `CCNC(=O)CCc1nc(-c2cccc(C)c2)no1`, > 79 µM (inactive). For `CC(C)(C)c1ccc(-c2noc(CCC(=O)NC3CCC3)n2)cc1`, the IC50 was > 79 µM (inactive). The same measure for `Cc1ccc(-c2nc(CSCC(=O)NC3CC3)c(C)o2)cc1`: > 79 µM (inactive); for `CCOc1cccc(-c2nc(CSCC(=O)NC3CC3)c(C)o2)c1`: > 79 µM (inactive). On to `CCNC(=O)CCc1nc(-c2ccccc2Cl)no1`, for which the IC50 was > 79 µM (inactive). The same measure for `CCOc1ccc(-c2nc(CSCC(=O)NC3CC3)c(-c3ccccc3)o2)cc1`: > 79 µM (inactive); for `COc1ccc(C(=O)Nc2ccc3[nH]c(-c4cccc(OC)c4)cc(=O)c3c2)cc1`: > 79 µM (inactive). For `CCOc1ccccc1-c1nc(CSCC(=O)NC2CC2)c(C)o1`, the IC50 is > 79 µM (inactive).

For `CCc1ccc(-c2noc(CCC(=O)NC(C)CC)n2)cc1` (configuration not stated), the IC50 was > 79 µM (inactive). In the case of `Cc1oc(-c2ccc(OC(F)(F)F)cc2)nc1CSCC(=O)NC1CC1` it was > 79 µM (inactive).

With `COc1cccc(-c2cc(=O)c3cc(NC(=O)c4ccc(N(C)C)cc4)ccc3[nH]2)c1`, the IC50 is 2.25 µM. In the case of `C#CCNC(=O)CSCc1nc(-c2ccc(OCC)cc2)oc1C` it was > 79 µM (inactive); in that of `Cc1oc(-c2ccc(C(F)(F)F)cc2)nc1CSCC(=O)NC1CC1`, > 79 µM (inactive); in that of `CCCOc1ccc(-c2nc(CSCC(=O)O)c(C)o2)cc1`, > 79 µM (inactive).

In the case of `CCNC(=O)CCc1nc(-c2cccc(F)c2)no1`, the IC50 was > 79 µM (inactive). Turning to `CCc1ccc(-c2noc(CCC(=O)NC)n2)cc1`, the IC50 was > 79 µM (inactive). The same measure for `CNC(=O)CCc1nc(-c2ccc(C(C)C)cc2)no1`: > 79 µM (inactive); for `CCNC(=O)CCc1nc(-c2ccc(CC)cc2)no1`: > 79 µM (inactive). As to `CCCCOc1ccc(-c2nc(CSCC(=O)NC3CC3)c(C)o2)cc1`, the IC50 was > 79 µM (inactive). In the case of `CCOc1ccc(-c2nc(CSCC(=O)NC(C)(C)C)c(C)o2)cc1` it was > 79 µM (inactive).

Turning to `CCOC(=O)CC(NC(=O)c1ccc(Br)cc1)c1ccc(F)c([N+](=O)[O-])c1` (configuration not stated), the IC50 is > 79 µM (inactive).

As for `CCCOc1ccc(-c2nc(CSCC(=O)NC3CC3)c(C)o2)cc1`, the IC50 was > 79 µM (inactive). In the case of `CC(C)(C)NC(=O)CCc1nc(-c2ccccc2)no1` it was > 79 µM (inactive); in that of `CC(C)c1ccc(-c2noc(CCC(=O)NC3CC3)n2)cc1`, > 79 µM (inactive); in that of `Cc1oc(-c2ccc(C(F)(F)F)cc2)nc1CSCC(=O)O`, > 79 µM (inactive).

In the case of `CC(C)c1ccc(-c2noc(CCC(=O)NC(C)(C)C)n2)cc1`, the IC50 was > 79 µM (inactive).

`Cc1oc(-c2ccc(OC(F)(F)F)cc2)nc1CSCC(=O)O`: the IC50 is > 79 µM (inactive).

`CCNC(=O)CCc1nc(-c2ccccc2C)no1`: the IC50 was > 79 µM (inactive). In the case of `CCCCc1ccc(-c2noc(CCC(=O)NC(C)(C)C)n2)cc1` it was > 79 µM (inactive); in that of `CCOc1ccc(-c2nc(CSCC(=O)NCC3CC3)c(C)o2)cc1`, > 79 µM (inactive); in that of `CCOc1ccc(-c2nc(CSCC(=O)O)c(C)o2)cc1`, > 79 µM (inactive).

As for `CCCCc1ccc(-c2noc(CCC(=O)NC)n2)cc1`, the IC50 was > 79 µM (inactive). On to `CCOc1ccc(-c2nc(CSCC(=O)N3CCOCC3)c(C)o2)cc1`, for which the IC50 was > 79 µM (inactive). The same measure for `CCOc1ccc(-c2nc(CSCC(N)=O)c(C)o2)cc1`: > 79 µM (inactive).

In general, IC50 refers to the concentration needed to halve the response being measured.
